Measured values as given in patent publication US12152012B2, “BRAG2 inhibitors and applications thereof” (CENTRE NATIONAL DE LA RECHERCHE SCIENTIFIQUE, priority 2018, dated 2024).

Experiments:
Rac1/Trio = target: T1, Rac1/Trio (Homo sapiens, UniProt O75962); experiment: Nucleotide exchange kinetics on liposomes, Rac1 tethered by hexahistidine tag; type: biochemical; details: 50 μM; Rac1 tethered to liposomes
T1 construct: human TRIO^DH1PH1 (1232-1550); made in house
Protocol: (§1) FIG. 2. Bragsin is a specific inhibitor of the ArfGEF BRAG2 • a. Bragsin1 has no effect on the Sec7 domain of human ArfGEFs in solution. Nucleotide exchange kinetics were measured by fluorescence kinetics in the presence of Bragsin1 (50 μM) or DMSO using purified Sec7 domains and a truncated version of Arf1 (D17Arf1), which can be activated in solution. […] Nucleotide exchange kinetics were determined in the presence of Bragsin1 (50 μM) or DMSO with ArfGEF constructs carrying membrane-binding domains and myristoylated Arf1. […] was artificially tethered to liposomes by a C-terminal hexahistidine tag as described in (Peurois, F. et al. Biochem J 474, 1259-1272 (2017). Representative kinetic profiles are given in FIG. 15. • c. Bragsin1 inhibits the activation of myristoylated Arf6 by BRAG2 on liposomes. Experiments were carried out as in FIG. 2b. Representative kinetic profiles are given in FIG. 16. • d. Dose-response of Bragsin1 and Bragsin2 towards myristoylated Arf1 and BRAG2 on liposomes. Experiments were carried out as in FIG. 2b. • e. Silencing of BRAG2 phenocopies the effect of Bragsin2 on the TGN46 compartment. […]
(§2) The effect of Bragsin1 on the GEF efficiency of representative human ArfGEFs was evaluated by fluorescence kinetics using highly purified recombinant Arf GTPases and ArfGEFs. […]

[1] = target: T2, BRAG2 (activation of myristoylated Arf6) (Homo sapiens, UniProt Q6DN90); experiment: Nucleotide exchange kinetics on liposomes, activation of myristoylated Arf6; type: biochemical; details: 50 μM
T2 construct: human BRAG2^Sec7 (390-594) and BRAG2^Sec7PH (390-811); made in house
T2 sequence (Q6DN90 512-933): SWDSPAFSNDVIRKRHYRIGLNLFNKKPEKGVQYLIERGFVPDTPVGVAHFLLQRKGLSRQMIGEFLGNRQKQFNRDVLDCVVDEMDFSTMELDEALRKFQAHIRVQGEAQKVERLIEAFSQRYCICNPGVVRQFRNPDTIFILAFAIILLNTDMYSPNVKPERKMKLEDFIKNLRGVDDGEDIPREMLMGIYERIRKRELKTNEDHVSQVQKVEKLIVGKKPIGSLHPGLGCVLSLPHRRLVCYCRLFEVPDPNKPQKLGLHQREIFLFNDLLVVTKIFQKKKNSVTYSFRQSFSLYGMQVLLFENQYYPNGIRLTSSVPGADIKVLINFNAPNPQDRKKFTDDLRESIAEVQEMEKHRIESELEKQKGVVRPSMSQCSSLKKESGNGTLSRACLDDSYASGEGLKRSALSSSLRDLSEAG
Protocol: as §1, §2

[2] = tested on: EEA1 (early endosome marker) in Hela cells; experiment: Immunostaining and confocal microscopy of Hela cells; type: cell-based, human; details: 50 μM, 30 min
Protocol: FIG. 1. Bragsin2 affects Arf pathways in cells • a. Chemical structures of Bragsin1 and Bragsin2 and derivatives used in this study. Chemical synthesis and structural characterization of the compounds are described in example 6. • b. Bragsin2 disperses the TGN46 and GM130 markers. HeLa cells were treated with either DMSO (0.25%) or Bragsin2 (50 μM) for 30 min, immunostained for TGN46, GM130 or EEA1 (green channel) and analysed by confocal microscopy. Dispersion of GM130 and TGN46 by Bragsin2 is reversible. Hela cells were treated as in FIG. 1a and were incubated for an additional 30 min in fresh medium (wash panel) prior to immunostaining and confocal microscopy analysis. Expression of Arf-mCherry constructs carrying an activating mutation rescues the effect of Bragsin2. Hela cells were transfected with constitutively active Q/L mutants of Arf-mCherry. Note the difference between non-transfected cells (white asterisk) and transfected cells. Scale bars, 10 μm.
Hela cells were grown in Dulbecco's modified Eagle's medium supplemented with Glutamax™ and 10% fetal bovine serum (Invitrogen). For immunofluorescence studies, cells were grown on Labtek glass slides (Nunc) and transfected for 18 to 24 h using Lipofectamine 2000 (Invitrogen), according to the supplier's instructions. When specified, cells were treated with the indicated concentration of small molecule or corresponding volume of vehicle (DMSO) in growth medium for 30 min at 37° C.
Immunostaining procedure was as described in (Viaud, J. et al. Structure-based discovery of an inhibitor of Arf activation by Sec7 domains through targeting of protein-protein complexes. Proc Natl Acad Sci USA 104, 10370-5 (2007)) except that secondary antibody incubation was performed for 1h using Alexa 488-conjugated goat anti-mouse (1:600) or donkey anti-sheep (1:500) IgG and Alexa 647-conjugated phalloidin (1:100). Anti-GM130 was used at dilution 1:200. Images were bidirectionally recorded using an inverted Leica TCS SP8 laser-scanning confocal microscope with a 100× (N. A. 1.40) oil objective (HCX APO, Leica). Fluorochromes were detected sequentially using excitation laser lines at 488 nm (Alexa 488), 594 nm (mCherry) and 633 nm (Alexa 647). Stacks were generated using a z-step of 0.5 μm and processed using Fiji/ImageJ (Schindelin, J. et al. Fiji: an open-source platform for biological-image analysis. Nat Methods 9, 676-82 (2012)). Images are representative of at least two independent experiments.

Compound: Cc1ccc2oc(C(F)(F)F)cc(=O)c2c1[N+](=O)[O-] [Bragsin1, 6-methyl-5-nitro-2-(trifluoromethyl)-4H-chromen-4-one]
- Effect on Rac1/Trio exchange activity on liposomes (Rac1/Trio): no effect
- Inhibition of BRAG2-mediated activation of myristoylated Arf6 [1]: inhibits

Compound: COc1ccc2oc(C(F)(F)F)cc(=O)c2c1[N+](=O)[O-] [Bragsin2, 6-methoxy-5-nitro-2-(trifluoromethyl)-4H-chromen-4-one]
- Effect on early endosome marker EEA1 [2]: no effect
